What follows are compounds tested against T1, Ba/F3 cell EGFR Exon20 ins NPH (Homo sapiens, UniProt P00533, INS773NPH) (assay: Ba/F3 cell proliferation suppression, EGFR Exon20 ins NPH). Settings: GI50 class; Ba/F3 cell line with NPH inserted at Exon20 of EGFR; 72 hours.
T1 construct: expressed in transfected cells; host or cells: Ba/F3
Assay type: cell-based
How it was run: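 Cells were seeded 24 h before dosing and then treated for 72 hours with compound at final concentrations of 0.3 nM to 50 um. Live cells were measured by CellTiter-Glo luminescence, and GI50 values were derived from growth ratio relative to control across three repeats.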
In the case of `C=CC(=O)Nc1cc(Nc2cc(N3OCC[C@@H]3c3ccc4ccccc4c3)ncn2)c(OC)cc1N1CCN(C)CC1` [compound 509, N-(4-methoxy-2-(4-methylpiperazine-1-yl)-5-((6-((R)-3-(naphthalene-2-yl)isoxazolidine-2-yl)pyrimidine-4-yl)amino)phenyl)acrylamide], the “Ba/F3 (NPH) Activity” value is reported as “B (50 nM ≤ GI50 < 500 nM)”.
With `C=CC(=O)Nc1cc(Nc2cc(N3OCC[C@@H]3c3cccs3)ncn2)c(OC)cc1N1CCN(C)CC1` [compound 929, N-(4-methoxy-2-(4-methylpiperazine-1-yl)-5-((6-((R)-3-(thiophene-2-yl)isoxazolidine-2-yl)pyrimidine-4-yl)amino)phenyl)acrylamide] the “Ba/F3 (NPH) Activity” value was “A (GI50 < 50 nM)”.
With `C=CC(=O)Nc1cc(Nc2cc(N3OCC[C@@H]3c3ccc(Cl)cc3F)ncn2)c(OC)cc1N1CCN(CC)CC1` [compound 401, N-(5-((6-((R)-3-(4-chloro-2-fluorophenyl)isoxazolidine-2-yl)pyrimidine-4-yl)amino)-2-(4-ethylpiperazine-1-yl)-4-methoxyphenyl) acrylamide] the “Ba/F3 (NPH) Activity” value was “A (GI50 < 50 nM)”.
With `C=CC(=O)Nc1cc(Nc2cc(N3OCC[C@@H]3c3ccc(Cl)cc3)ncn2)c(OC)cc1N1CCC(N2CCN(C3CC3)CC2)CC1` [Example 58, N-(5-((6-((R)-3-(4-chlorophenyl)isoxazolidine-2-yl)pyrimidine-4-yl)amino)-2-(4-(4-cyclopropylpiperazine-1-yl)piperidine-1-yl)-4-methoxyphenyl) acrylamide] the “Ba/F3 (NPH) Activity” value was “A (GI50 < 50 nM)”.
`C=CC(=O)Nc1cc(Nc2cc(N3OCC[C@@H]3Cc3ccccc3)ncn2)c(OC)cc1N1CCN(C2CCCC2)CC1` [compound 972, N-(5-((6-((S)-3-benzylisoxazolidine-2-yl)pyrimidine-4-yl)amino)-2-(4-cyclopentylpiperazine-1-yl)-4-methoxyphenyl) acrylamide] was tested, and the “Ba/F3 (NPH) Activity” value was “A (GI50 < 50 nM)”.
For `C=CC(=O)Nc1cc(Nc2cc(N3OCC[C@@H]3c3cccc(Cl)c3)ncn2)c(OC)cc1N1CCC(N2CCN(C(C)C)CC2)CC1` [compound 461, N-(5-((6-((R)-3-(3-chlorophenyl)isoxazolidine-2-yl)pyrimidine-4-yl)amino)-2-(4-(4-isopropylpiperazine-1-yl)piperidine-1-yl)-4-methoxyphenyl) acrylamide], the “Ba/F3 (NPH) Activity” value was “A (GI50 < 50 nM)”.
With `C=CC(=O)Nc1cc(Nc2cc(N3OCC[C@@H]3c3cccc(F)c3Cl)ncn2)c(OC)cc1N1CCN(C)CC1` [compound 552, N-(5-((6-((R)-3-(2-chloro-3-fluorophenyl)isoxazolidine-2-yl)pyrimidine-4-yl)amino)-4-methoxy-2-(4-methylpiperazine-1-yl)phenyl)acrylamide] the “Ba/F3 (NPH) Activity” value was “A (GI50 < 50 nM)”.
For `C=CC(=O)Nc1cc(Nc2cc(N3OCC[C@@H]3c3cccc(F)c3)ncn2)c(OC)cc1N1CC[C@H](N2CCOCC2)C1` [compound 321, N-(5-((6-((R)-3-(3-fluorophenyl)isoxazolidine-2-yl)pyrimidine-4-yl)amino)-4-methoxy-2-((S)-3-morpholinopyrolidine-1-yl)phenyl)acrylamide], the “Ba/F3 (NPH) Activity” value was “B (50 nM ≤ GI50 < 500 nM)”.
With `C=CC(=O)Nc1cc(Nc2cc(N3OCC[C@@H]3c3cccc(Cl)c3C)ncn2)c(OC)cc1N1CCN(CC)CC1` [compound 585, N-(5-((6-((R)-3-(3-chloro-2-methylphenyl)isoxazolidine-2-yl)pyrimidine-4-yl)amino)-2-(4-ethylpiperazine-1-yl)-4-methoxyphenyl) acrylamide] the “Ba/F3 (NPH) Activity” value was “A (GI50 < 50 nM)”.
In the case of `C=CC(=O)Nc1cc(Nc2cc(N3OCC[C@@H]3c3cccc(Cl)c3F)ncn2)c(OC)cc1N1CCC(N2CCN(C3CC3)CC2)CC1` [Example 62, N-(5-((6-((R)-3-(3-chloro-2-fluorophenyl)isoxazolidine-2-yl)pyrimidine-4-yl)amino)-2-(4-(4-cyclopropylpiperazine-1-yl)piperidine-1-yl)-4-methoxyphenyl) acrylamide], the “Ba/F3 (NPH) Activity” value is reported as “A (GI50 < 50 nM)”.
With `C=CC(=O)Nc1cc(Nc2cc(N3OCC[C@@H]3c3ccc(Cl)c(F)c3)ncn2)c(OC)cc1N1CCN(C(C)=O)CC1` [compound 363, N-(2-(4-acetylpiperazine-1-yl)-5-((6-((R)-3-(4-chloro-3-fluorophenyl)isoxazolidine-2-yl)pyrimidine-4-yl)amino)-4-methoxyphenyl) acrylamide] the “Ba/F3 (NPH) Activity” value was “A (GI50 < 50 nM)”.
`C=CC(=O)Nc1cc(Nc2cc(N3OCC[C@@H]3c3cccc(OC)c3)ncn2)c(OC)cc1N1CCC(N2CCN(C3COC3)CC2)CC1` [Example 81, N-(4-methoxy-5-((6-((R)-3-(3-methoxyphenyl)isoxazolidine-2-yl)pyrimidine-4-yl)amino)-2-(4-(4-(oxetane-3-yl)piperazine-1-yl)piperidine-yl)phenyl) acrylamide] was tested, and the “Ba/F3 (NPH) Activity” value was “B (50 nM ≤ GI50 < 500 nM)”.
For `C=CC(=O)Nc1cc(Nc2cc(N3OCC[C@@H]3c3ccc(Cl)c(Cl)c3)ncn2)c(OC)cc1N1CCOCC1` [compound 615, N-(5-((6-((R)-3-(3,4-dichlorophenyl)isoxazolidine-2-yl)pyrimidine-4-yl)amino)-4-methoxy-2-morpholinophenyl) acrylamide], the “Ba/F3 (NPH) Activity” value was “A (GI50 < 50 nM)”.
`C=CC(=O)Nc1cc(Nc2cc(N3OCC[C@@H]3c3ccc(F)c(F)c3)ncn2)c(OC)cc1N1CCC(N2CCN(C)CC2)CC1` [compound 502, N-(5-((6-((R)-3-(3,4-difluorophenyl)isoxazolidine-2-yl)pyrimidine-4-yl)amino)-4-methoxy-2-(4-(4-methylpiperazine-1-yl)piperidine-1-yl)phenyl) acrylamide] was tested, and the “Ba/F3 (NPH) Activity” value was “A (GI50 < 50 nM)”.
With `C=CC(=O)Nc1cc(Nc2cc(N3OCC[C@@H]3c3cccc(F)c3F)ncn2)c(OC)cc1N(C)CCN(C)C` [compound 924, N-(5-((6-((R)-3-(2,3-difluorophenyl)isoxazolidine-2-yl)pyrimidine-4-yl)amino)-2-((2-(dimethylamino)ethyl)(methyl)amino)-4-methoxyphenyl) acrylamide] the “Ba/F3 (NPH) Activity” value was “A (GI50 < 50 nM)”.
With `C=CC(=O)Nc1cc(Nc2cc(N3OCC[C@@H]3c3ccc(C)nc3)ncn2)c(OC)cc1N1CCC(N2CCN(C(C)C)CC2)CC1` [Example 230, N-(2-(4-(4-isopropylpiperazine-1-yl)piperidine-1-yl)-4-methoxy-5-((6-((R)-3-(6-methylpyridine-3-yl)isoxazolidine-2-yl)pyrimidine-4-yl)amino)phenyl)acrylamide] the “Ba/F3 (NPH) Activity” value was “B (50 nM ≤ GI50 < 500 nM)”.
With `C=CC(=O)Nc1cc(Nc2cc(N3OCC[C@H]3c3c(F)cccc3F)ncn2)c(OC)cc1N1CCN(CC)CC1` [compound 895, N-(5-((6-((S)-3-(2,6-difluorophenyl)isoxazolidine-2-yl)pyrimidine-4-yl)amino)-2-(4-ethylpiperazine-1-yl)-4-methoxyphenyl) acrylamide] the “Ba/F3 (NPH) Activity” value was “C (500 nM ≤ GI50 < 5000 nM)”.
With `C=CC(=O)Nc1cc(Nc2cc(N3OCC[C@@H]3c3cccc(C)c3F)ncn2)c(OC)cc1N(C)CCOC` [compound 319, N-(5-((6-((R)-3-(2-fluoro-3-methylphenyl)isoxazolidine-2-yl)pyrimidine-4-yl)amino)-4-methoxy-2-((2-methoxyethyl) (methyl)amino)phenyl)acrylamide] the “Ba/F3 (NPH) Activity” value was “B (50 nM ≤ GI50 < 500 nM)”.
In the case of `C=CC(=O)Nc1cc(Nc2cc(N3OCC[C@@H]3c3ccc(F)cc3F)ncn2)c(OC)cc1N1CCN(C2CCCC2)CC1` [compound 348, N-(2-(4-cyclopentylpiperazine-1-yl)-5-((6-((R)-3-(2,4-difluorophenyl)isoxazolidine-2-yl)pyrimidine-4-yl)amino)-4-methoxyphenyl) acrylamide], the “Ba/F3 (NPH) Activity” value is reported as “A (GI50 < 50 nM)”.
In the case of `C#Cc1cccc([C@H]2CCON2c2cc(Nc3cc(NC(=O)C=C)c(N4CCN(C5CC5)CC4)cc3OC)ncn2)c1` [compound 654, N-(2-(4-cyclopropylpiperazine-1-yl)-5-((6-((R)-3-(3-ethynylphenyl)isoxazolidine-2-yl)pyrimidine-4-yl)amino)-4-methoxyphenyl) acrylamide], the “Ba/F3 (NPH) Activity” value is reported as “B (50 nM ≤ GI50 < 500 nM)”.
`C=CC(=O)Nc1cc(Nc2cc(N3OCC[C@@H]3c3ccc(F)cc3F)ncn2)c(OC)cc1N1CCC(N(C)C)CC1` [compound 384, N-(5-((6-((R)-3-(2,4-difluorophenyl)isoxazolidine-2-yl)pyrimidine-4-yl)amino)-2-(4-(dimethylamino)piperidine-1-yl)-4-methoxyphenyl) acrylamide] was tested, and the “Ba/F3 (NPH) Activity” value was “A (GI50 < 50 nM)”.
With `C=CC(=O)Nc1cc(Nc2cc(N3OCC[C@@H]3c3cccc(OC)c3)ncn2)c(OC)cc1N(C)CCN(C)C` [Example 24, N-(2-((2-(dimethylamino)ethyl) (methyl)amino)-4-methoxy-5-((6-((R)-3-(3-methoxyphenyl)isoxazolidine-2-yl)pyrimidine-4-yl)amino)phenyl) acrylamide] the “Ba/F3 (NPH) Activity” value was “A (GI50 < 50 nM)”.
`C=CC(=O)Nc1cc(Nc2cc(N3OCC[C@@H]3c3cccc(Cl)c3Cl)ncn2)c(OC)cc1N1CCN(C)CC1` [compound 481, N-(5-((6-((R)-3-(2,3-dichlorophenyl)isoxazolidine-2-yl)pyrimidine-4-yl)amino)-4-methoxy-2-(4-methylpiperazine-1-yl)phenyl)acrylamide] was tested, and the “Ba/F3 (NPH) Activity” value was “A (GI50 < 50 nM)”.
With `C=CC(=O)Nc1cc(Nc2cc(N3OCC[C@@H]3c3ccc(F)cc3)ncn2)c(OC)cc1N1CCC(N2CCN(C(C)=O)CC2)CC1` [compound 809, N-(2-(4-(4-acetylpiperazine-1-yl)piperidine-1-yl)-5-((6-((R)-3-(4-fluorophenyl)isoxazolidine-2-yl)pyrimidine-4-yl)amino)-4-methoxyphenyl) acrylamide] the “Ba/F3 (NPH) Activity” value was “A (GI50 < 50 nM)”.

Reference: patent US12157730B2, “Heteroaryl derivative, method for producing same, and pharmaceutical composition comprising same as effective component” (VORONOI INC., priority 2019, dated 2024)
